Measurements: the supplement of paper PMC12137928
Counter-ions that a name gives are not always drawn.

Tested on: HCT116
Conditions: 72 h
In short: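 For IC50 and maximal efficacy, four-parameter Hill fits were used. Input values were CellTiter-Glo luminescence from HCT116 cells seeded at 250 per well in 1536-well plates, normalized to vehicle (0%) and positive control (-100%). Pattern correction followed normalization.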

Row | SMILES | IC50 cell viability (ICRF193 0 nM) [µM] | IC50 cell viability (ICRF193 200 nM) [µM]
1 | Cc1cn([C@H]2C[C@H](N=[N+]=[N-])[C@@H](CO)O2)c(=O)[nH]c1=O [3'-Azido-3'-deoxythymidine] | > 45.8 | > 45.8
2 | CCCCCCCCCCCCCCCCCCOCC(O)CO (stereo not given) [3-(Octadecyloxy)-1,2-propanediol] | > 45.8 | > 45.8
3 | OCCCNc1ccccc1 [3-Anilinopropan-1-ol] | > 45.8 | > 45.8
4 | CC(C)CCON=O [3-Methylbutyl nitrite] | > 45.8 | > 45.8
5 | Cc1c[nH]c2ccccc12 [3-Methylindole] | > 45.8 | > 45.8
6 | CC(C)(C)CC(C)(C)c1ccc(O)cc1 [4-(1,1,3,3-Tetramethylbutyl)phenol] | > 45.8 | > 45.8
7 | Nc1ccncc1 [4-Aminopyridine] | > 45.8 | > 45.8
8 | C[C@]12CCC(=O)C=C1CC[C@@H]1[C@@H]2CC[C@]2(C)C(=O)CC[C@@H]12 [4-Androstene-3,17-dione] | > 45.8 | > 45.8
9 | Cc1cc(O)cc(C)c1Cl [4-Chloro-3,5-dimethylphenol] | > 45.8 | > 45.8
10 | Cc1cc(O)ccc1Cl [4-Chloro-3-methylphenol] | > 45.8 | > 45.8
11 | Oc1ccc(Cl)cc1 [4-Chlorophenol] | > 45.8 | > 45.8
12 | Cc1c(N(C)C)c(=O)n(-c2ccccc2)n1C [4-Dimethylaminoantipyrine] | > 45.8 | > 45.8
13 | O=[N+]([O-])c1cc([As](=O)(O)O)ccc1O [4-Hydroxy-3-nitrophenylarsonic acid] | > 45.8 | > 45.8
14 | O=S(=O)(O)c1ccc(O)cc1 [4-Phenolsulfonic acid] | > 45.8 | > 45.8
15 | C(=C\c1ccncc1)/c1ccccc1 [4-Styrylpyridine] | > 45.8 | > 45.8
16 | O=C1NC(=O)C(c2ccccc2)(c2ccccc2)N1 [5,5-Diphenylhydantoin] | > 45.8 | > 45.8
17 | Cc1ccc2c(Cl)cc(Cl)c(O)c2n1 [5,7-Dichloro-8-hydroxy-2-methylquinoline] | > 45.8 | > 45.8
18 | Cn1sc(Cl)cc1=O [5-Chloro-2-methyl-3(2H)-isothiazolone] | > 45.8 | > 45.8
19 | CC(C)CCC[C@@H](C)[C@H]1CC[C@H]2[C@@H]3CC[C@H]4C[C@@H](O)CC[C@]4(C)[C@H]3CC[C@]12C [5alpha-Cholestan-3beta-ol] | > 45.8 | > 45.8
20 | CC1(C)S[C@@H]2[C@H](N)C(=O)N2[C@H]1C(=O)O [6-Aminopenicillanic acid] | > 45.8 | > 45.8
21 | Cn1c(=O)c2[nH]c(Br)nc2n(C)c1=O [8-Bromotheophylline] | > 45.8 | > 45.8
22 | Oc1cccc2cccnc12 [8-Quinolinol Salicylic acid (1:1)] | > 45.8 | > 45.8

Row | SMILES | IC50 cell viability (ICRF193 0 nM) [µM] | IC50 cell viability (ICRF193 200 nM) [µM]
23 | CC(C)[C@H]1CC[C@H](C)C[C@@H]1O [(1S,2R,5S)-(+)-Menthol] | > 45.8 | > 45.8
24 | O=C/C=C/c1ccccc1 [(2E)-3-Phenylprop-2-enal] | > 45.8 | > 45.8
25 | O=C(O)[C@@H](S)[C@H](S)C(=O)O [(2R,3R)-2,3-Dimercaptosuccinic acid] | > 45.8 | > 45.8
26 | CC(C)[C@@H]1CC[C@@H](C)CC1=O [(2S,5R)-5-Methyl-2-(propan-2-yl)cyclohexanone] | > 45.8 | > 45.8
27 | Nc1ccc([As](=O)(O)O)cc1 [(4-Aminophenyl)arsonic acid] | > 45.8 | > 45.8
28 | C[C@H](O)[C@H](O)[C@H]1CNc2nc(N)[nH]c(=O)c2N1 [(6R)-5,6,7,8-Tetrahydrobiopterin dihydrochloride] | > 45.8 | > 45.8
29 | C=C1CC[C@H](O)C/C1=C/C=C1\CCC[C@]2(C)[C@@H]([C@H](C)CC[C@H](O)C(C)(C)O)CC[C@@H]12 [(24S)-24,25-Dihydroxyvitamin D3] | > 45.8 | > 45.8
30 | CC(C)=CCN1CC[C@]2(C)c3cc(O)ccc3C[C@H]1[C@H]2C [(+)-Pentazocine succinate] | > 45.8 | > 45.8
31 | COc1cc2c3cc1Oc1cc(ccc1O)C[C@@H]1c4c(cc(OC)c(O)c4Oc4ccc(cc4)C[C@@H]3N(C)CC2)CC[N+]1(C)C [(+)-Tubocurarine chloride hydrochloride] | > 45.8 | > 45.8
32 | CCN(CC)C(=O)N[C@@H]1C=C2c3cccc4[nH]cc(c34)C[C@@H]2N(C)C1 [(-)-(5S,8R)-Lisuride] | > 45.8 | > 45.8
33 | COC(=O)[C@H]1[C@@H](OC(=O)c2ccccc2)C[C@@H]2CC[C@H]1N2C [(-)-Cocaine hydrochloride] | > 45.8 | > 45.8
34 | O=c1[nH]cnc2c1ncn2[C@@H]1O[C@H](CO)[C@@H](O)[C@H]1O [(-)-Inosine] | > 45.8 | > 45.8
35 | Cc1c(OCC(F)(F)F)ccnc1C[S@@+]([O-])c1nc2ccccc2[nH]1 [(R)-Lansoprazole] | > 45.8 | > 45.8
36 | CC[C@@]1(c2ccccc2)NC(=O)N(C)C1=O [(S)-Mephenytoin] | > 45.8 | > 45.8
37 | Cn1nnc(-c2ccc(-c3ccc(N4C[C@@H](CO)OC4=O)cc3F)cn2)n1 [(S)-Tedizolid] | > 45.8 | > 45.8
38 | CC(C)(C)NC[C@H](O)COc1nsnc1N1CCOCC1 [(S)-Timolol] | > 45.8 | > 45.8
39 | Nc1nc(NC2CC2)c2ncn([C@H]3C=C[C@@H](CO)C3)c2n1 [ABACAVIR SULFATE] | > 45.8 | > 45.8
40 | NCCCC(O)(P(=O)(O)O)P(=O)(O)O [ALENDRONATE SODIUM] | > 45.8 | > 45.8
41 | Cn1c(=O)cc(N2CCC[C@@H](N)C2)n(Cc2ccccc2C#N)c1=O [ALOGLIPTIN BENZOATE] | > 45.8 | > 45.8
42 | O=C1c2c(O)cccc2C([C@@H]2O[C@H](CO)[C@@H](O)[C@H](O)[C@H]2O)c2cc(CO)cc(O)c21 (stereo not given in full) [ALOIN] | > 45.8 | > 45.8
43 | CC(=O)OCC(=O)[C@@]12OC3(CCCC3)O[C@@H]1C[C@H]1[C@@H]3CCC4=CC(=O)C=C[C@]4(C)[C@@]3(F)[C@@H](O)C[C@@]12C [AMCINONIDE] | > 45.8 | > 45.8
44 | CC1(C)S[C@@H]2[C@H](NC(=O)[C@H](N)c3ccccc3)C(=O)N2[C@H]1C(=O)O [AMPICILLIN SODIUM] | > 45.8 | > 45.8

Further lines, results first:

Row | IC50 cell viability (ICRF193 0 nM) [µM] | IC50 cell viability (ICRF193 200 nM) [µM] | SMILES
45 | > 45.8 | > 45.8 | CC1CC(OC(=O)c2ccccc2O)CC(C)(C)C1 (stereo not given) [3,3,5-Trimethylcyclohexyl salicylate]
46 | > 45.8 | > 45.8 | CCOc1ccc(NC(=O)CC(C)O)cc1 (stereo not given) [3-Hydroxy-4-butyrophenetidide]
47 | > 45.8 | > 45.8 | CC(=O)Nc1ccc(C(=O)O)cc1 [4-Acetamidobenzoic acid]
48 | > 45.8 | > 45.8 | CC(=O)Nc1ccc(CC(=O)O)cc1 [4-Acetylaminophenylacetic acid]
49 | > 45.8 | > 45.8 | Nc1ccc(C(=O)O)cc1 [4-Aminobenzoic acid]
50 | > 45.8 | > 45.8 | CCCCCCc1ccc(O)cc1O [4-Hexylresorcinol]
51 | > 45.8 | > 45.8 | COc1ccc(/C=C/C(=O)O)cc1 [4-Methoxycinnamic acid]
52 | > 45.8 | > 45.8 | COc1ccc(O)cc1 [4-Methoxyphenol]
53 | > 45.8 | > 45.8 | Cc1cc(=O)oc2cc(O)ccc12 [4-Methylumbelliferone]
54 | > 45.8 | > 45.8 | CCCc1ccc(C(=O)O)cc1 [4-Propylbenzoic acid]
55 | > 45.8 | > 45.8 | Nc1ccc(O)c(C(=O)O)c1 [5-Aminosalicylic acid]
56 | > 45.8 | > 45.8 | CCCCC[C@H](O)C=C[C@@H]1[C@@H](C/C=C/CCCC(=O)O)[C@H](O)C[C@H]1O [5-trans Prostaglandin F2?]
57 | > 45.8 | > 45.8 | Cc1cc(O)c(C(C)C)cc1Cl [6-Chlorothymol]
58 | > 45.8 | > 45.8 | CCCCC/C=C/C/C=C/CCCCCCCC(=O)O [9(E),12(E)-Octadecadienoic acid]
59 | > 45.8 | > 45.8 | CCCCCC/C=C\CCCCCCCC(=O)O [9(Z)-Hexadecenoic acid]
60 | > 45.8 | > 45.8 | CCC(=O)Oc1ccc2c(c1)CCC1C2CCC2(C)C(OC(=O)CC)CCC12 (stereo not drawn) [17-BETA-ESTRADIOL 3,17-DIPROPIONATE]
61 | > 45.8 | > 45.8 | CCCCCC[C@@H](CCC)C(=O)O [(2R)-2-Propyloctanoic acid]
62 | > 45.8 | > 45.8 | Oc1cc(O)c2c(c1)O[C@H](c1ccc(O)c(O)c1)[C@H](O)C2 [(-)-Epicatechin]
63 | > 45.8 | > 45.8 | COc1cc(CNC(=O)CCCC/C=C/C(C)C)ccc1O [(E)-Capsaicin]
64 | > 45.8 | > 45.8 | CN1CC(O)c2cc(N=NC(=N)N)c(O)cc21 (stereo not given) [ADRENOCHROME MONOAMINOGUANIDINE MESILATE ANHYDROUS]
65 | > 45.8 | > 45.8 | CCOC(=O)[C@H](C)C[C@@H](Cc1ccc(-c2ccccc2)cc1)NC(=O)CCC(=O)O [AHU-377]
